Measurements as given in PubChem BioAssay (NCI).
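All cell lines were grown in 96-well plates and treated with compound for 48 hours. Here, GI50 denotes the concentration required for 50% inhibition of growth. TGI: concentration producing complete growth inhibition.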

Key:
Assay in all cases: growth of human tumour cells (NCI), 48 h
[1] = system: PC-3 prostate
[2] = system: NCI-H226 lung
[3] = system: U251 CNS
[4] = system: SNB-75 CNS
[5] = system: OVCAR-3 ovarian
[6] = system: A498 renal
[7] = system: HCT-116 colon
[8] = system: MDA-MB-435
[9] = system: ACHN renal
[10] = system: SF-539 CNS
[11] = system: HCT-15 colon
[12] = system: HL-60(TB) leukemia
[13] = system: LOX IMVI melanoma
[14] = system: SK-MEL-28 melanoma
[15] = system: K-562 leukemia
[16] = system: CCRF-CEM leukemia
[17] = system: HCC-2998 colon
[18] = system: SF-295 CNS
[19] = system: T-47D breast
[20] = system: 786-0 renal
[21] = system: HOP-92 NSCLC
[22] = system: SNB-19 CNS
[23] = system: MALME-3M melanoma
[24] = system: CAKI-1 renal
[25] = system: NCI/ADR-RES ovarian
[26] = system: OVCAR-5 ovarian
[27] = system: SF-268 CNS
[28] = system: SK-MEL-2 melanoma
[29] = system: SK-MEL-5 melanoma
[30] = system: NCI-H460 lung
[31] = system: UACC-257 melanoma
[32] = system: COLO 205 colon
[33] = system: NCI-H522 lung
[34] = system: MDA-MB-231 breast
[35] = system: UACC-62 melanoma
[36] = system: BT-549 breast
[37] = system: UO-31 renal
[38] = system: IGROV1 ovarian
[39] = system: OVCAR-8 ovarian
[40] = system: RPMI-8226 leukemia
[41] = system: MCF7 breast
[42] = system: HT29 colon
[43] = system: TK-10 renal
[44] = system: M14 melanoma
[45] = system: EKVX NSCLC
[46] = system: KM12 colon
[47] = system: MOLT-4 leukemia
[48] = system: NCI-H23 lung
[49] = system: RXF 393 renal
[50] = system: HS 578T breast
[51] = system: OVCAR-4 ovarian
[52] = system: A549 NSCLC
[53] = system: SW-620 colon
[54] = system: DU-145 prostate
[55] = system: SK-OV-3 ovarian
[56] = system: HOP-62 NSCLC

## Cc1csc(Nc2nc(-c3cccc(Br)c3)nc(C(Cl)(Cl)Cl)n2)n1
[1]
  GI50: 1.92 µM
  TGI: > 100 µM
[2]
  GI50: > 100 µM
  TGI: > 100 µM
[3]
  GI50: 1.83 µM
  TGI: > 100 µM
[4]
  GI50: 1.36 µM
  TGI: > 27.9 µM
[5]
  GI50: 1.11 µM
  TGI: 3.24 µM
[6]
  GI50: 1.06 µM
  TGI: 2.47 µM
[7]
  GI50: 3.05 µM
  TGI: > 100 µM
[8]
  GI50: 6.07 µM
  TGI: > 100 µM
[9]
  GI50: 0.475 µM
  TGI: 2.97 µM
[10]
  GI50: 3.09 µM
  TGI: > 100 µM
[11]
  GI50: 4.95 µM
  TGI: > 100 µM
[12]
  GI50: 1.04 µM
  TGI: 3.96 µM
[13]
  GI50: > 100 µM
  TGI: > 100 µM
[14]
  GI50: 3.48 µM
  TGI: > 100 µM
[15]
  GI50: > 24.9 µM
  TGI: > 100 µM
[16]
  GI50: > 100 µM
  TGI: > 100 µM
[17]
  GI50: 1.63 µM
  TGI: 3.57 µM
[18]
  GI50: 2.17 µM
  TGI: > 100 µM
[19]
  GI50: 1.38 µM
  TGI: > 26.8 µM
[20]
  GI50: 7.75 µM
  TGI: > 100 µM
[21]
  GI50: 1.1 µM
  TGI: 6.16 µM
[22]
  GI50: 2.87 µM
  TGI: > 100 µM
[23]
  GI50: > 100 µM
  TGI: > 100 µM
[24]
  GI50: 2.41 µM
  TGI: > 100 µM
[25]
  GI50: 5.22 µM
  TGI: > 100 µM
[26]
  GI50: 5.2 µM
  TGI: > 100 µM
[27]
  GI50: 4.65 µM
  TGI: > 100 µM
[28]
  GI50: > 100 µM
  TGI: > 100 µM
[29]
  GI50: > 100 µM
  TGI: > 100 µM
[30]
  GI50: 1.16 µM
  TGI: 3.53 µM
[31]
  GI50: 3.34 µM
  TGI: > 100 µM
[32]
  GI50: 0.855 µM
  TGI: > 23.3 µM
[33]
  GI50: > 100 µM
  TGI: > 100 µM
[34]
  GI50: 2.78 µM
  TGI: > 100 µM
[35]
  GI50: 3.35 µM
  TGI: > 100 µM
[36]
  GI50: > 100 µM
  TGI: > 100 µM
[37]
  GI50: 2.51 µM
  TGI: > 100 µM
[38]
  GI50: > 100 µM
  TGI: > 100 µM
[39]
  GI50: > 29.2 µM
  TGI: > 100 µM
[40]
  GI50: 2.19 µM
  TGI: > 100 µM
[41]
  GI50: 1.43 µM
  TGI: > 100 µM
[42]
  GI50: 0.56 µM
  TGI: > 100 µM
[43]
  GI50: 2.25 µM
  TGI: > 100 µM
[44]
  GI50: > 100 µM
  TGI: > 100 µM
[45]
  GI50: 1.61 µM
  TGI: 5.35 µM
[46]
  GI50: 1.58 µM
  TGI: 4.82 µM
[47]
  GI50: > 40.9 µM
  TGI: > 100 µM
[48]
  GI50: > 100 µM
  TGI: > 100 µM
[49]
  GI50: 1 µM
  TGI: 4.04 µM
[50]
  GI50: 2.94 µM
  TGI: > 100 µM
[51]
  GI50: > 100 µM
  TGI: > 100 µM
[52]
  GI50: 1.61 µM
  TGI: 7.28 µM
[53]
  GI50: 3.29 µM
  TGI: > 100 µM
[54]
  GI50: 0.419 µM
  TGI: 3.21 µM
[55]
  GI50: > 100 µM
  TGI: > 100 µM
[56]
  GI50: 2.21 µM
  TGI: > 28.7 µM
